# Reference: paper PMC9290507, “Rh^II‐Catalyzed De‐symmetrization of Ethane‐1,2‐dithiol and Propane‐1,3‐dithiol Yields Metallo‐β‐lactamase Inhibitors” (Chemmedchem, 2021)
# How the values were obtained:
# [1] = target: T1, NDM‐1 (Klebsiella pneumoniae, UniProt C7C422); assay: Fluorescence-based enzyme activity assay (Fluorocillin), NDM-1; type: biochemical
# T1 construct: made in house
# Description: (§1) In order to investigate the structure‐activity relationships of the dithiol library, we measured the inhibitory activity of 3 a–x in a fluorescence‐based enzyme activity assay (Table 1). Two relevant β‐lactamase isoforms, NDM‐1 and VIM‐1 were selected for in vitro assays. The fluorogenic substrate fluorocillin[15] was prepared according to literature and its conversion was monitored as described previously.[6] In general, a linear relationship between the potency of 3 a–x towards both enzymes could be observed, however, inhibitory potency towards VIM‐1 was almost tenfold higher (Figure 3). A very clear preference for the propane‐1,3‐dithiol over ethane‐1,2‐dithiol compounds could be observed from matched molecular pairs.
# (§2) Activity assays for MBLs were performed at room temperature in black polystyrol 96well plates (Corning, Corning, NY, USA) using dicefalotinodifluorofluorescein (Fluorocillin) as a substrate. Proteins were diluted in assay buffer (HEPES 50 mM, pH 7.5 containing 0.01 %Triton X‐100), with final protein concentrations of NDM‐1: 3 nM, or VIM‐1: 4 nM. Samples were supplemented with an equimolar amount of ZnCl2. An amount of 1 μL of compounds 3 a–3 x at different concentrations was incubated with 89 μL of enzyme in assay buffer. After an incubation period of 30 min at room temperature, 10 μL of Fluorocillin substrate was added to yield the final assay volume of 100 μL. Final concentration of DMSO was 1 %. The fluorescence emitted by the fluorescent product difluorofluorescein was monitored every 45 s for 30 cycles using a Tecan fluorescent plate reader (Infinite 200; excitation at 495 nm and emission at 525 nm) and was compared with a standard curve. The rate of the enzymatic reaction was obtained by dividing the quantity of the fluorescent product (RFU) by time (min). Negative controls were measured in the absence of enzyme, whereas the positive controls were measured in the presence of enzyme and in the absence of inhibitors. The inhibitory effect of each substance was measured in triplicate in three independent experiments. IC50 values were calculated using data obtained from measurements with at least eight different inhibitor concentrations, applying a sigmoidal dose–response (variable slope with four parameters) equation using GraphPad Prism 5 (GraphPad Software, La Jolla, CA, USA) software. In order to investigate the inhibitory activity of 3 a, 3 o, or 3 s in the presence of a high Zn^2+ concentration, assay buffer containing an additional 100 μM ZnCl2 was used. The assay was performed as described above with NDM‐1 or VIM‐1 and 10 μM of 3 a, 3 o, or 3 s.
# [2] = target: T2, VIM‐1 (Pseudomonas aeruginosa, UniProt A0A0F7KYQ8); assay: Fluorescence-based enzyme activity assay (Fluorocillin), VIM-1; type: biochemical
# T2 construct: made in house
# Description: as §1, §2
# [3] = system: E. coli NDM‐1 (T2359); assay: Intrinsic antimicrobial activity (MIC, CLSI microdilution), E. coli NDM-1; type: cell-based
# Description: (§3) Minimal inhibitory concentrations (MICs) of imipenem monohydrate (Sigma‐Aldrich)±compound 3 a, 3 o, or 3 s against transformed E. coli strains producing NDM‐1 or VIM‐1 were determined according to microdilution method established by Clinical and Laboratory Standards Institute (CLSI).^20 The checkerboard assay was performed to test for synergy in vitro. The microtiter‐plates were set up with serial doubling dilutions of compound 3 a, 3 o, or 3 s (2‐128 mg/L) and imipenem (0.125‐128 mg/L).
# [4] = target: T3, VIM‐2 (Escherichia coli, UniProt Q5U7L7); assay: Kd determination using isothermal titration calorimetry; type: binding; settings: ITC, 250 μM compound into 50 μM VIM-2, 25 °C
# T3 construct: made in house
# Description: The next step was the investigation of the binding thermodynamics of 3 a, 3 o, and 3 s. For these experiments we used a closely related enzyme VIM‐2 which is an isoform of VIM‐1 and can be recombinantly expressed in very high concentrations, suitable tor isothermal titration calorimetry (ITC) experiments (Figure 6).
# VIM‐2 expression and purification was published elsewhere.[19] Before the measurement the VIM‐2 protein was dialyzed against 500 times the volume of buffer (50 mM Tris, 500 mM NaCl, 5 % (v/v) glycerol with a pH=8) using a dialysis membrane with a 3.5 kDa MWCO. For the measurements the compounds 3 a, 3 o, or 3 s, respectively, were diluted using the dialyses buffer to a final concentration of 250 μM containing a final DMSO concentration of 1 %. The VIM‐2 protein was diluted to a final concentration of 50 μM, supplemented with 1 % DMSO using the dialysis buffer and pure DMSO. For the control measurements dialysis buffer was supplemented with pure DMSO to a final concentration of 1 %. The measurements were performed using an “Affinity ITC” (TA‐Instruments) in reversed mode, with a stir rate of 75 rpm and a temperature of 25 °C. The VIM‐2 was placed in the cell and the respective compound in the syringe. For blank measurements either the protein or compound dilution were exchanged with buffer containing 1 % DMSO. For the measurements of 3 a and 3 s one time 0.5 μl was injected followed by 50 injections of 2 μl with a spacing of 240 s. 3 o was measured with one injection of 0.5 μl followed by 35 injections of 2 μl with a spacing of 240 s. The data were analyzed using the “NanoAnalyze Data Analysis” software (version 3.10.0; TA‐Instruments).
# [5] = system: E. coli NDM‐1 (T2359); assay: Checkerboard synergy assay with imipenem, E. coli NDM-1; type: cell-based; settings: for Imipenem MIC: E. coli NDM-1 (T2359)
# Description: (§4) To investigate this, the MIC of imipenem or combined with various concentrations of compound 3a, 3o, or 3 s was determined against E. coli transformants producing NDM‐1 or VIM‐1 (Table 3 and 4).
# as §3
# [6] = system: E. coli VIM‐1 (T2544); assay: Intrinsic antimicrobial activity (MIC, CLSI microdilution), E. coli VIM-1; type: cell-based; settings: Escherichia coli
# Description: as §3
# [7] = system: E. coli VIM‐1 (T2544); assay: Checkerboard synergy assay with imipenem, E. coli VIM-1; type: cell-based; settings: for Imipenem MIC: E. coli VIM-1 (T2544)
# Description: as §4, §3
# [8] = 10 μM compound, additional 100 μM ZnCl2 in assay buffer
# [9] = Escherichia coli, read-out: Imipenem MIC
# T1 sequence (C7C422 29-270, looked up, species assumed): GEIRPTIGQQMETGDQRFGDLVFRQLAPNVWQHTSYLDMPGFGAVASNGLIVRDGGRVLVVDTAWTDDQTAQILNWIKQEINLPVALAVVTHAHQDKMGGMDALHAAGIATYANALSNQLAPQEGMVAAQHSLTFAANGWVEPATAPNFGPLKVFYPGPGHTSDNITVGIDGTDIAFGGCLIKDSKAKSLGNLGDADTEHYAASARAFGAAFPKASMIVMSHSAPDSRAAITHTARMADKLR
smiles,measurement,setting,value
"CN(C(=O)CSCCS)[C@H]1CCCC[C@@H]1O (relative stereo) [3 v, N‐((1S*,2S*)‐2‐Hydroxycyclohexyl)‐2‐((2‐mercaptoethyl)thio)‐N‐methylacetamide]",IC50,[1],5500 ± 300 nM
same,IC50,[2],330 ± 20 nM
"O=C1CCCC1SCCCS (stereo not shown) [3 a, 2‐((3‐Mercaptopropyl)thio)cyclopentanone]",IC50,[1],480 ± 70 nM
same,Effect of added zinc ions on inhibitory activity (NDM-1),[1]; [8],does not impair the inhibitory activity
same,MIC,[3]; Escherichia coli,> 512 µg/mL
same,Intrinsic antimicrobial activity,"[3]; compound alone, E. coli transformants producing NDM-1 or VIM-1 (Table 2)",no intrinsic antimicrobial activity
same,Kd,[4],880 nM
same,Kd,[4]; inset of Figure 6,878 nM
same,IC50,[2],170 ± 40 nM
same,Effect of added zinc ions on inhibitory activity (VIM-1),[2]; [8],does not impair the inhibitory activity
same,Imipenem MIC,[5]; +2 μg/ml compound,128 µg/mL
same,Imipenem MIC,[5]; +4 μg/ml compound,128 µg/mL
same,Imipenem MIC,[5]; +8 μg/ml compound,128 µg/mL
same,Imipenem MIC,[5]; +16 μg/ml compound,64 µg/mL
same,Imipenem MIC,[5]; +32 μg/ml compound,64 µg/mL
same,Imipenem MIC,[5]; +64 μg/ml compound,64 µg/mL
same,Imipenem MIC,[5]; +128 μg/ml compound,32 µg/mL
same,MIC,[6],> 512 µg/mL
same,Imipenem MIC,[7]; +2 μg/ml compound,32 µg/mL
same,Imipenem MIC,[7]; +4 μg/ml compound,32 µg/mL
same,Imipenem MIC,[7]; +8 μg/ml compound,16 µg/mL
same,Imipenem MIC,[7]; +16 μg/ml compound,16 µg/mL
same,Imipenem MIC,[7]; +32 μg/ml compound,16 µg/mL
same,Imipenem MIC,[7]; +64 μg/ml compound,16 µg/mL
same,Imipenem MIC,[7]; +128 μg/ml compound,8 µg/mL
"Cc1ccc(C(=O)CSCCS)cc1 [3 b, 2‐((2‐Mercaptoethyl)thio)‐1‐(p–tolyl)ethanone]",IC50,[1],3910 ± 420 nM
same,IC50,[2],220 ± 30 nM
"Cc1ccc(C(=O)CSCCCS)cc1 [3 c, 2‐((3‐Mercaptopropyl)thio)‐1‐(p–tolyl)ethanone]",IC50,[1],250 ± 60 nM
same,IC50,[2],70 ± 10 nM
"O=C(CSCCS)c1ccc(Cl)cc1 [3 d, 1‐(4‐Chlorophenyl)‐2‐((2‐mercaptoethyl)thio)ethanone]",IC50,[1],5630 ± 1190 nM
same,IC50,[2],230 ± 10 nM
"O=C(CSCCCS)c1ccc(F)cc1 [3 e, 1‐(4‐Fluorophenyl)‐2‐((3‐mercaptopropyl)thio)ethanone]",IC50,[1],600 ± 30 nM
same,IC50,[2],230 ± 50 nM
"COc1ccc(C(=O)CSCCS)cc1 [3 f, 2‐((2‐Mercaptoethyl)thio)‐1‐(4‐methoxyphenyl)ethanone]",IC50,[1],1340 ± 320 nM
same,IC50,[2],180 ± 10 nM
"COc1ccc(C(=O)CSCCCS)cc1 [3 g, 2‐((3‐Mercaptopropyl)thio)‐1‐(4‐methoxyphenyl)ethanone]",IC50,[1],430 ± 20 nM
same,IC50,[2],140 nM
"O=C1OCCC1SCCS (stereo not shown) [3 h, 3‐((2‐Mercaptoethyl)thio)dihydrofuran‐2(3H)‐one]",IC50,[1],3630 ± 470 nM
same,IC50,[2],460 ± 30 nM
"COC(=O)C(SCCS)c1ccc(Cl)cc1 (stereo not shown) [3 i, Methyl 2‐(4‐chlorophenyl)‐2‐((2‐mercaptoethyl)thio)acetate]",IC50,[1],880 ± 160 nM
same,IC50,[2],190 ± 10 nM
"CCOC(=O)C(SCCS)c1ccc([N+](=O)[O-])cc1 (stereo not shown) [3 j, Ethyl 2‐((2‐mercaptoethyl)thio)‐2‐(4‐nitrophenyl)acetate]",IC50,[1],1550 ± 420 nM
same,IC50,[2],900 ± 60 nM
"CCOC(=O)C(SCCCS)c1ccc([N+](=O)[O-])cc1 (stereo not shown) [3 k, Ethyl 2‐((3‐mercaptopropyl)thio)‐2‐(4‐nitrophenyl)acetate]",IC50,[1],7790 ± 1300 nM
same,IC50,[2],730 ± 50 nM
"COC(=O)CC(SCCCS)C(=O)OC (stereo not shown) [3 l, Dimethyl 2‐((3‐mercaptopropyl)thio)succinate]",IC50,[1],440 ± 110 nM
same,IC50,[2],40 ± 10 nM
"CN1CCC(SCCCS)C1=O (stereo not shown) [3 m, 3‐((3‐Mercaptopropyl)thio)‐1‐methylpyrrolidin‐2‐one]",IC50,[1],1580 ± 220 nM
same,IC50,[2],180 nM
"O=C1C(SCCS)CCN1c1ccccc1 (stereo not shown) [3 n, 3‐((2‐Mercaptoethyl)thio)‐1‐phenylpyrrolidin‐2‐one]",IC50,[1],1410 ± 70 nM
same,IC50,[2],80 nM
"O=C1C(SCCS)CCN1c1cccc(C(F)(F)F)c1 (stereo not shown) [3 p, 3‐((2‐Mercaptoethyl)thio)‐1‐(3‐(trifluoromethyl)phenyl)pyrrolidin‐2‐one]",IC50,[1],2080 ± 110 nM
same,IC50,[2],220 ± 10 nM
"O=C1C(SCCCS)CCN1c1cccc(C(F)(F)F)c1 (stereo not shown) [3 q, 3‐((3‐Mercaptopropyl)thio)‐1‐(3‐(trifluoromethyl)phenyl)pyrrolidin‐2‐one]",IC50,[1],480 ± 10 nM
same,IC50,[2],70 ± 10 nM
"O=C1C(SCCS)CCN1c1nccs1 (stereo not shown) [3 r, 3‐((2‐Mercaptoethyl)thio)‐1‐(thiazol‐2‐yl)pyrrolidin‐2‐one]",IC50,[1],1540 ± 30 nM
same,IC50,[2],40 ± 20 nM
"N#Cc1ccc(N2CCC(SCCS)C2=O)cc1 (stereo not shown) [3 t, 4‐(3‐((2‐Mercaptoethyl)thio)‐2‐oxopyrrolidin‐1‐yl)benzonitrile]",IC50,[1],1190 ± 120 nM
same,IC50,[2],100 ± 20 nM
"O=C(CSCCCS)N1CCN(Cc2ccc(Cl)cc2)CC1 [3 u, 1‐(4‐(4‐Chlorobenzyl)piperazin‐1‐yl)‐2‐((3‐mercaptopropyl)thio)ethan‐1‐one]",IC50,[1],3310 ± 120 nM
same,IC50,[2],300 ± 20 nM
"CN(Cc1ccc(Cl)cc1)C(=O)CSCCS [3 w, N‐(4‐Chlorobenzyl)‐2‐((2‐mercaptoethyl)thio)‐N‐methylacetamide]",IC50,[1],580 ± 30 nM
same,IC50,[2],100 ± 10 nM
"Cc1ccc(S(=O)(=O)N2CCN(C(=O)CSCCS)CC2)cc1 [3 x, 2‐((2‐Mercaptoethyl)thio)‐1‐(4‐tosylpiperazin‐1‐yl)ethanone]",IC50,[1],2400 ± 130 nM
same,IC50,[2],400 ± 30 nM
"C[C@@H](O)[C@H]1C(=O)N2C(C(=O)O)=C(SCCN=CN)C[C@H]12 [Imipenem, imipenem, reference compound]",MIC,[5]; [9],128 µg/mL
same,MIC,[7]; [9],32 µg/mL
